ChEMBL document CHEMBL3813632, “Thiazolo[3,2-a]benzimidazol-3(2H)-one derivatives: Structure-activity relationships of selective nucleotide pyrophosphatase/phosphodiesterase1 (NPP1) inhibitors” (Bioorg Med Chem, 2016)
The source made the active and inactive calls. The rule behind the calls is not given here.

Experiments:
Homo sapiens = species: Homo sapiens; test: Selectivity ratio of Ki for human recombinant Ecto-5'-nucleotidase to Ki for human recombinant NPP1
[1] = biological target: T1, Ectonucleoside triphosphate diphosphohydrolase 3 (Homo sapiens) (UniProt O75355); test: Inhibition of human recombinant NTPDase3 expressed in NS0 cells using ATP as substrate at 10 to 1000 uM preincubated with substrate followed by protein addition and subsequent incubation for 30 mins by capillary electrophoresis
T1 sequence (whole entry): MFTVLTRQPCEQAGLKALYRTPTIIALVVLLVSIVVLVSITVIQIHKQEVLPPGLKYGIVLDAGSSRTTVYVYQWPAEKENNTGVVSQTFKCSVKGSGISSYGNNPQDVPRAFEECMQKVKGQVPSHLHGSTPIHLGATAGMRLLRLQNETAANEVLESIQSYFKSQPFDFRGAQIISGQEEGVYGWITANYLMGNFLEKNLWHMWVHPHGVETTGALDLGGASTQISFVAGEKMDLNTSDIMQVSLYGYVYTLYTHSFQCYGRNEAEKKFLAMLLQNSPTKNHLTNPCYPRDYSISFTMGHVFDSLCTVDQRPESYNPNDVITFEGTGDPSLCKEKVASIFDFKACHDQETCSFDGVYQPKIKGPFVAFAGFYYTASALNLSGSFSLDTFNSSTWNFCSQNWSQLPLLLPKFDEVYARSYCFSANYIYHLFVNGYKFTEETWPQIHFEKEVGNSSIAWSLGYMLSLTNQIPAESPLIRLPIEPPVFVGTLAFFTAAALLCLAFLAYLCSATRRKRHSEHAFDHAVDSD

Autotaxin (Homo sapiens) = Autotaxin (Homo sapiens) (UniProt Q13822); test: Inhibition of human recombinant NPP2 expressed in insect SF9 cells using 1-oleoylsn-glycero-3-phosphocholine as substrate at >100 uM preincubated with substrate followed by protein addition and subsequent incubation for 60 mins by colorimetric analysis
[2] = Chemical stability of the compound assessed as compound remaining at pH 7.4 at 25 to 37 degC after 8 to 24 hrs by HPLC-MS analysis; format: physicochemical; conditions: buffer

## O=c1/c(=C/c2ccc(I)o2)sc2nc3ccccc3n12
Homo sapiens
  Ratio Ki: 1000
[1]
  inhibition: inactive
Autotaxin (Homo sapiens)
  inhibition: Active
[2]
  Stability: Stable
